Test [1] deals with Transgenic T2 Arabidopsis plants and ARBTH WT MC24 non-transgenic. Put plainly: Greenhouse post spray test, injury 14 DAT (Tables ii, iii).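 On all read-outs here: value is percent injury to the sprayed plants.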 It counts as in vivo, Arabidopsis thaliana. The following applies: Arabidopsis thaliana, 336 h, Table ii; for pest or weed control at 50 g/ha: 50 g ai/ha; for pest or weed control at 100 g/ha: 100 g ai/ha; for pest or weed control at 200 g/ha: 200 g ai/ha.

For test [2], the system named is Transgenic T2 Arabidopsis plants harboring PPO inhibitor tolerance trait. Put plainly: Lab based germination assay in 48-well plates (Table i). It counts as in vivo, Arabidopsis thaliana. As to conditions: construct AMATU_PPO2_TP_hemG (Escherichia coli); in comparison to wild type plants.
Test [3] concerns Variant PPO Enzyme R128A, F420M (Amaranthus PPO2). It counts as biochemical. The following applies: variant R128A, F420M vs wild type.
Test [4] has as its target Wild Type PPO Enzyme (Amaranthus PPO2, SEQ ID NO: 1) (Amaranthus tuberculatus, UniProt Q0NZW9). As to the kind of experiment: PPO enzyme assay (recombinant), wild type. It counts as biochemical.

One may read the pest or weed control as how far the test organism was held down. As a reminder, the IC50 is the point on the concentration scale where inhibition reaches its midpoint.

Sequence of Wild Type PPO Enzyme (Amaranthus PPO2, SEQ ID NO: 1) (Q0NZW9 1-534): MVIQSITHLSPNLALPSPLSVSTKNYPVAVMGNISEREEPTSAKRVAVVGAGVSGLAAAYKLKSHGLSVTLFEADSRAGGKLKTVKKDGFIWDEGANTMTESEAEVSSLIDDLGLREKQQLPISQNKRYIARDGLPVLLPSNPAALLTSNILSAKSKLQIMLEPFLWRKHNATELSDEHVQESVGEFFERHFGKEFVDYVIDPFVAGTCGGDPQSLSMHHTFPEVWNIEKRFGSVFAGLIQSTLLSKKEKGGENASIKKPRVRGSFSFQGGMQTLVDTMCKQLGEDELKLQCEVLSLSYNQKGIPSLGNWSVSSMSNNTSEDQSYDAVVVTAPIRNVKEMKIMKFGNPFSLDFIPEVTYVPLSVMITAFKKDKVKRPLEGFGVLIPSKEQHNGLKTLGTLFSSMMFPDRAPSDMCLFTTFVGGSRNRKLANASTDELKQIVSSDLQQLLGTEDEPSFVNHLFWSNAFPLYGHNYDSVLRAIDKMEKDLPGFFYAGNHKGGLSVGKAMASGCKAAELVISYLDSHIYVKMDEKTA

In the case of `Cn1c(C(F)(F)F)cc(=O)n(-c2nc(Oc3cccnc3OCC(=O)O)c(Cl)cc2F)c1=O` [Uracilpyridine 3, 2-[[3-[[3-chloro-5-fluoro-6-[3-methyl-2,6-dioxo-4-(trifluoromethyl)pyrimidin-1-yl]-2-pyridyl]oxy]-2-pyridyl]oxy]acetic acid], the pest or weed control at 1 g/ha came to 48% in test [1] (AMATU_PPO2_WT event Q, 1 g ai/ha); 88% in test [1] (ARBTH WT MC24 non-transgenic, 1 g ai/ha + 1% MSO); 10% in test [1] (ARBTH_PPO1_WT event Q, 1 g ai/ha). Also, the pest or weed control at 5 g/ha in test [1] (AMATU_PPO2_WT event Q, 5 g ai/ha) worked out at 80%; in test [1] (ARBTH WT MC24 non-transgenic, 5 g ai/ha + 1% MSO), 100%; in test [1] (ARBTH_PPO1_S305L_Y426M event O, 5 g ai/ha), 0%; in test [1] (ARBTH_PPO1_WT event Q, 5 g ai/ha), 83%. The pest or weed control at 10 g/ha came out at 100% in test [1] (AMATU_PPO2_WT event Q, 10 g ai/ha); 100% in test [1] (ARBTH WT MC24 non-transgenic, 10 g ai/ha + 1% MSO); 0% in test [1] (ARBTH_PPO1_S305L_Y426M event O, 10 g ai/ha); 98% in test [1] (ARBTH_PPO1_WT event Q, 10 g ai/ha). The pest or weed control at 30 g/ha in test [1] (AMATU_PPO2_WT event Q, 30 g ai/ha) turned out to be 100%; in test [1] (ARBTH WT MC24 non-transgenic, 30 g ai/ha + 1% MSO) it was 100%; in test [1] (ARBTH_PPO1_S305L_Y426M event O, 30 g ai/ha) it was 49%; in test [1] (ARBTH_PPO1_WT event Q, 30 g ai/ha), 100%. Also, the pest or weed control at 80 g/ha in test [1] (ARBTH WT MC24 non-transgenic, 80 g ai/ha + 1% MSO) came out at 100%; in test [1] (ARBTH_PPO1_S305L_Y426M event O, 80 g ai/ha), 13%. Also, in test [2], the “Tolerance Factor” value was determined as 1600.
On to `CCOC(=O)COc1ccccc1Oc1nc(-n2c(=O)cc(C(F)(F)F)n(C)c2=O)ccc1Br` [Uracilpyridine 6, ethyl 2-[2-[[3-bromo-6-[3-methyl-2,6-dioxo-4-(trifluoromethyl)pyrimidin-1-yl]-2-pyridyl]oxy]phenoxy]acetate], for which the pest or weed control at 50 g/ha in test [1] (ALOMY_PPO2_R137L_F438V event F), in test [1] (ALOMY_PPO2_R137L_F438V event G), in test [1] (AMATU_PPO2_L397E_F420V event D), in test [1] (AMATU_PPO2_L397E_F420V event L), in test [1] (AMATU_PPO2_R128A_F420V event A) and in test [1] (AMATU_PPO2_R128A_F420V event D) was 0% each time. The pest or weed control at 100 g/ha in test [1] (ALOMY_PPO2_R137L_F438V event F) stood at 0%; in test [1] (ALOMY_PPO2_R137L_F438V event G) it was 0%; in test [1] (AMATU_PPO2_L397E_F420V event D), 0%; in test [1] (AMATU_PPO2_L397E_F420V event L), 0%; in test [1] (AMATU_PPO2_R128A_F420V event A), 43%; in test [1] (AMATU_PPO2_R128A_F420V event D), 38%. Also, the pest or weed control at 200 g/ha in test [1] (ALOMY_PPO2_R137L_F438V event F) was 18%; in test [1] (ALOMY_PPO2_R137L_F438V event G), 0%; in test [1] (AMATU_PPO2_L397E_F420V event D), 8%; in test [1] (AMATU_PPO2_L397E_F420V event L), 15%; in test [1] (AMATU_PPO2_R128A_F420V event A) it was 30%; in test [1] (AMATU_PPO2_R128A_F420V event D), 28%.
Consider `CCOC(=O)COc1ccc(F)cc1Oc1nc(-n2c(=O)cc(C(F)(F)F)n(C)c2=O)c(F)cc1Cl` [Uracilpyridine 7, ethyl 2-[2-[[3-chloro-5-fluoro-6-[3-methyl-2,6-dioxo-4-(trifluoromethyl)pyrimidin-1-yl]-2-pyridyl]oxy]-4-fluoro-phenoxy]acetate], for which the pest or weed control at 50 g/ha in test [1] (ALOMY_PPO2_R137L_F438V event F) turned out to be 0%; in test [1] (ALOMY_PPO2_R137L_F438V event G), 0%; in test [1] (AMATU_PPO2_L397E_F420V event D), 0%; in test [1] (AMATU_PPO2_L397E_F420V event L), 0%; in test [1] (AMATU_PPO2_R128A_F420V event A) it was 13%; in test [1] (AMATU_PPO2_R128A_F420V event D), 33%. The pest or weed control at 100 g/ha came to 18% in test [1] (ALOMY_PPO2_R137L_F438V event F); 0% in test [1] (ALOMY_PPO2_R137L_F438V event G); 0% in test [1] (AMATU_PPO2_L397E_F420V event D); 0% in test [1] (AMATU_PPO2_L397E_F420V event L); 50% in test [1] (AMATU_PPO2_R128A_F420V event A); 65% in test [1] (AMATU_PPO2_R128A_F420V event D). Also, the pest or weed control at 200 g/ha was 13% in test [1] (ALOMY_PPO2_R137L_F438V event F); 8% in test [1] (ALOMY_PPO2_R137L_F438V event G); 10% in test [1] (AMATU_PPO2_L397E_F420V event D); 33% in test [1] (AMATU_PPO2_L397E_F420V event L); 70% in test [1] (AMATU_PPO2_R128A_F420V event A); 75% in test [1] (AMATU_PPO2_R128A_F420V event D).
For the compound `CCOC(=O)COc1ccccc1Oc1nc(-n2c(=O)c(C)c(C(F)(F)F)n(C)c2=O)c(F)cc1Cl` [Uracilpyridine 12, ethyl 2-[2-[[3-chloro-6-[3,5-dimethyl-2,6-dioxo-4-(trifluoromethyl)pyrimidin-1-yl]-5-fluoro-2-pyridyl]oxy]phenoxy]acetate], the “Tolerance Factor (R/S)” value in test [3] was 536. Also, the IC50 in test [4] turned out to be 0.212 nM.
As to `C=CCOC(=O)COc1ncccc1Oc1nc(-n2c(=O)cc(C(F)(F)F)n(C)c2=O)c(F)cc1Cl` [Uracilpyridine 13, allyl 2-[[3-[[3-chloro-5-fluoro-6-[3-methyl-2,6-dioxo-4-(trifluoromethyl)pyrimidin-1-yl]-2-pyridyl]oxy]-2-pyridyl]oxy]acetate], the “Tolerance Factor (R/S)” value in test [3] is 421. In addition, in test [4], the IC50 was 0.218 nM.
`C#CCOC(=O)COc1ncccc1Oc1nc(-n2c(=O)cc(C(F)(F)F)n(C)c2=O)c(F)cc1Cl` [Uracilpyridine 14, prop-2-ynyl 2-[[3-[[3-chloro-5-fluoro-6-[3-methyl-2,6-dioxo-4-(trifluoromethyl)pyrimidin-1-yl]-2-pyridyl]oxy]-2-pyridyl]oxy]acetate]: the “Tolerance Factor (R/S)” value in test [3] came to 675. Further, the IC50 in test [4] worked out at 0.234 nM.
For `Cn1c(C(F)(F)F)cc(=O)n(-c2nc(Oc3cccnc3OCC(=O)OCC3CC3)c(Cl)cc2F)c1=O` [Uracilpyridine 15, cyclopropylmethyl 2-[[3-[[3-chloro-5-fluoro-6-[3-methyl-2,6-dioxo-4-(trifluoromethyl)pyrimidin-1-yl]-2-pyridyl]oxy]-2-pyridyl]oxy]acetate], in that order: 195 and 0.22 nM.
Turning to `Cn1c(C(F)(F)F)cc(=O)n(-c2nc(Oc3cccnc3OCC(=O)OCC(F)F)c(Cl)cc2F)c1=O` [Uracilpyridine 16, 2,2-difluoroethyl 2-[[3-[[3-chloro-5-fluoro-6-[3-methyl-2,6-dioxo-4-(trifluoromethyl)pyrimidin-1-yl]-2-pyridyl]oxy]-2-pyridyl]oxy]acetate], the “Tolerance Factor (R/S)” value in test [3] is 508. For the same compound, the IC50 in test [4] is 0.175 nM.
For `CC(C)COC(=O)COc1ncccc1Oc1nc(-n2c(=O)cc(C(F)(F)F)n(C)c2=O)c(F)cc1Cl` [Uracilpyridine 17, isobutyl 2-[[3-[[3-chloro-5-fluoro-6-[3-methyl-2,6-dioxo-4-(trifluoromethyl)pyrimidin-1-yl]-2-pyridyl]oxy]-2-pyridyl]oxy]acetate], in test [3], the “Tolerance Factor (R/S)” value was 406. Further, the IC50 in test [4] worked out at 0.113 nM.
On to `CCOC(=O)COC(=O)COc1ncccc1Oc1nc(-n2c(=O)cc(C(F)(F)F)n(C)c2=O)c(F)cc1Cl` [Uracilpyridine 18, (2-ethoxy-2-oxo-ethyl) 2-[[3-[[3-chloro-5-fluoro-6-[3-methyl-2,6-dioxo-4-(trifluoromethyl)pyrimidin-1-yl]-2-pyridyl]oxy]-2-pyridyl]oxy]acetate], for which, in test [3], the “Tolerance Factor (R/S)” value is 753. Besides, the IC50 in test [4] was determined as 0.154 nM.
With `COCCOC(=O)COc1ncccc1Oc1nc(-n2c(=O)cc(C(F)(F)F)n(C)c2=O)c(F)cc1Cl` [Uracilpyridine 19, 2-methoxyethyl 2-[[3-[[3-chloro-5-fluoro-6-[3-methyl-2,6-dioxo-4-(trifluoromethyl)pyrimidin-1-yl]-2-pyridyl]oxy]-2-pyridyl]oxy]acetate], the “Tolerance Factor (R/S)” value in test [3] worked out at 503. The IC50 in test [4] was 0.248 nM.
